Measurements: patent US20130243732A1, “ABROGATING PROINFLAMMATORY CYTOKINE PRODUCTION DURING ONCOLYTIC REOVIRUS THERAPY” ([…] INC., priority 2008, published 2013)

How the values were obtained:
[1] = system: subcutaneous B16.F10 tumors in C57Bl/6 mice or K1735 tumors in C3H mice; test: In vivo tumor growth and survival, i.t. RV and i.p. CP alone or in combination; design: species or system mouse; conditions: treated days 1 and 4, tumor model not stated
Description: C57Bl/6 (FIGS. 1A and 1C) and C3H (FIGS. 1B and 1D) mice bearing subcutaneous B16.F10 and K1735 tumors, respectively, were treated on days 1 and 4 with either reovirus alone via intratumoral (i.t.) injection (squares), cisplatin alone via intraperitoneal (i.p.) administration (triangles), or reovirus and cisplatin in combination (circles). Control treated mice (diamonds) received PBS. Tumors were measured on the days indicated and tumor volume expressed as tumor volume relative to volume at commencement of treatment (FIGS. 1A and 1B). Mice were euthanized when tumors exceeded 15 mm in any one dimension. Survival is expressed as Kaplan-Myer plots (FIGS. 1C and 1D).
(§1) For in vivo evaluation, subcutaneous B16.F10 tumors in C57Bl/6 mice or K1735 tumors in C3H mice were treated with intratumoral (i.t.) RV and intraperitoneal (i.p.) CP either alone or in combination. Tumor volume was estimated thrice weekly. […] Tumors were measured on the days indicated and tumor volume expressed as tumor volume relative to volume at commencement of treatment (FIGS. 1A and 1B). […] Survival is expressed as Kaplan-Myer plots (FIGS. 1C and 1D). […] In contrast live virus was detected in only 50% of tumors from combination treated mice but in the liver of 4/6 mice.

[2] = system: neutralizing anti-reovirus antibody (NARA); test: Neutralising anti-reovirus antibody (NARA) response in serum; type: in vivo, mouse; conditions: CP used in combination with RV
Description: FIG. 2 is a graph showing the neutralizing anti-reovirus antibody (NARA) response after no treatment (control) or treatment with reovirus, cisplatin or the combination of reovirus and cisplatin.
For in vivo evaluation, subcutaneous B16.F10 tumors in C57Bl/6 mice or K1735 tumors in C3H mice were treated with intratumoral (i.t.) RV and intraperitoneal (i.p.) CP either alone or in combination. Tumor volume was estimated thrice weekly. Tumors and organs were harvested post-treatment for viral retrieval and histology; serum samples were tested for cytokine production and induction of neutralising anti-reovirus antibody (NARA). […] C57Bl/6 (FIGS. 1A and 1C) and C3H (FIGS. 1B and 1D) mice bearing subcutaneous B16.F10 and K1735 tumors respectively were treated on days 1 and 4 with either reovirus alone i.t. (squares), cisplatin alone i.p. (triangles), or reovirus and cisplatin in combination (circles). Control treated mice (diamonds) received PBS. Tumors were measured on the days indicated and tumor volume expressed as tumor volume relative to volume at commencement of treatment (FIGS. 1A and 1B). Mice were euthanized when tumors exceeded 15 mm in any one dimension. Survival is expressed as Kaplan-Myer plots (FIGS. 1C and 1D). […] In contrast live virus was detected in only 50% of tumors from combination treated mice but in the liver of 4/6 mice.

[3] = system: proinflammatory cytokines (IL-1I, IL-3, IL-6, IL-12, IL-17, MIP-1I, RANTES); test: Pro-inflammatory cytokine production in serum; type: in vivo, mouse; conditions: CP used in combination with RV
Description: FIGS. 3A, 3B, 3C, 3D, 3E, 3F, and 3G are graphs showing pro-inflammatory cytokine response is abrogated by cisplatin. The response of IL-1I (FIG. 3A), IL-3 (FIG. 3B), IL-6 (FIG. 3C), IL-12 (FIG. 3D), IL-17 (FIG. 3E), MIP-1I (FIG. 3F) and RANTES (FIG. 3G) were measured after no treatment (control) or treatment with reovirus, cisplatin or the combination of reovirus and cisplatin.
as §1, with “weekly. Tumors and organs were harvested post-treatment for viral retrieval and histology; serum samples were tested for cytokine production and induction of neutralising anti-reovirus antibody (NARA).” for “weekly.”

What does the source list for N.N.[Cl][Pt][Cl] [CP, cisplatin]?
Mean relative tumor volumes ±SD ([1]; day 12, volume relative to commencement of treatment): 9.87±2.80; Median survival ([1]; euthanized when tumors exceeded 15 mm): 8 days; neutralizing anti-reovirus antibody (NARA) response to RV [2]: did not affect; production of proinflammatory cytokines to RV [3]: marked attenuation
